Results as given in ChEMBL document CHEMBL1152339, “Use of the in vivo hollow fiber assay in natural products anticancer drug discovery” (J Nat Prod, 2009).

Key:
Type in all cases: functional
LNCaP [1] = test: Growth inhibition of human LNCAP cells xenografted in ip dosed NCr nu/nu mouse administered once daily from day 3 to 6 after implantation measured on day 7 by MTT-based hollow-fiber test
LNCaP [2] = test: Growth inhibition of human LNCAP cells xenografted in NCr nu/nu mouse at 10 to 40 mg/kg, sc once daily administered from day 3 to 6 after implantation measured on day 7 by MTT-based hollow-fiber test; settings: route subcutaneous
LNCaP [3] = test: Growth inhibition of human LNCAP cells xenografted in NCr nu/nu mouse at 10 to 40 mg/kg, ip once daily administered from day 3 to 6 after implantation measured on day 7 by MTT-based hollow-fiber test; settings: route intraperitoneal
KB [4] = test: Growth inhibition of human KB cells xenografted in NCr nu/nu mouse at 0.195 to 1.56 mg/kg, ip once daily administered from day 3 to 6 after implantation measured on day 7 by MTT-based hollow-fiber test; settings: route intraperitoneal
Col2 [5] = test: Growth inhibition of human Col2 cells xenografted in ip dosed NCr nu/nu mouse administered once daily from day 3 to 6 after implantation measured on day 7 by MTT-based hollow-fiber test
Col2 [6] = test: Growth inhibition of human Col2 cells xenografted in NCr nu/nu mouse at 0.195 to 1.56 mg/kg, sc once daily administered from day 3 to 6 after implantation measured on day 7 by MTT-based hollow-fiber test; settings: route subcutaneous
KB [7] = test: Growth inhibition of human KB cells xenografted in NCr nu/nu mouse at 0.195 to 1.56 mg/kg, sc once daily administered from day 3 to 6 after implantation measured on day 7 by MTT-based hollow-fiber test; settings: route subcutaneous
LNCaP [8] = test: Growth inhibition of human LNCAP cells xenografted in NCr nu/nu mouse at 0.195 to 1.56 mg/kg, ip once daily administered from day 3 to 6 after implantation measured on day 7 by MTT-based hollow-fiber test; settings: route intraperitoneal
Col2 [9] = test: Growth inhibition of human Col2 cells xenografted in NCr nu/nu mouse at 0.195 to 1.56 mg/kg, ip once daily administered from day 3 to 6 after implantation measured on day 7 by MTT-based hollow-fiber test; settings: route intraperitoneal
LNCaP [10] = test: Growth inhibition of human LNCAP cells xenografted in NCr nu/nu mouse at 0.195 to 1.56 mg/kg, sc once daily administered from day 3 to 6 after implantation measured on day 7 by MTT-based hollow-fiber test; settings: route subcutaneous
LNCaP [11] = test: Growth inhibition of human LNCAP cells xenografted in NCr nu/nu mouse at 25 to 100 mg/kg, ip once daily administered from day 3 to 6 after implantation measured on day 7 by MTT-based hollow-fiber test; settings: route intraperitoneal
MCF7 [12] = test: Growth inhibition of human MCF7 cells xenografted in ip dosed NCr nu/nu mouse administered once daily from day 3 to 6 after implantation measured on day 7 by MTT-based hollow-fiber test
SK-MEL-2 [13] = test: Growth inhibition of human SK-MEL-2 cells xenografted in NCr nu/nu mouse at 25 to 100 mg/kg, sc once daily administered from day 3 to 6 after implantation measured on day 7 by MTT-based hollow-fiber test; settings: dose mg/kg 3-6; route subcutaneous
KB [14] = test: Growth inhibition of human KB cells xenografted in NCr nu/nu mouse at 25 to 100 mg/kg, ip once daily administered from day 3 to 6 after implantation measured on day 7 by MTT-based hollow-fiber test; settings: route intraperitoneal
KB [15] = test: Growth inhibition of human KB cells xenografted in NCr nu/nu mouse at 25 to 100 mg/kg, sc once daily administered from day 3 to 6 after implantation measured on day 7 by MTT-based hollow-fiber test; settings: route subcutaneous
SW626 [16] = test: Growth inhibition of human SW626 cells xenografted in ip dosed NCr nu/nu mouse administered once daily from day 3 to 6 after implantation measured on day 7 by MTT-based hollow-fiber test
MCF7 [17] = test: Growth inhibition of human MCF7 cells xenografted in NCr nu/nu mouse at 25 to 100 mg/kg, ip once daily administered from day 3 to 6 after implantation measured on day 7 by MTT-based hollow-fiber test; settings: dose mg/kg 3-6; route intraperitoneal
SK-MEL-2 [18] = test: Growth inhibition of human SK-MEL-2 cells xenografted in ip dosed NCr nu/nu mouse administered once daily from day 3 to 6 after implantation measured on day 7 by MTT-based hollow-fiber test
SW626 [19] = test: Growth inhibition of human SW626 cells xenografted in NCr nu/nu mouse at 25 to 100 mg/kg, ip once daily administered from day 3 to 6 after implantation measured on day 7 by MTT-based hollow-fiber test; settings: dose mg/kg 3-6; route intraperitoneal
SK-MEL-2 [20] = test: Growth inhibition of human SK-MEL-2 cells xenografted in NCr nu/nu mouse at 25 to 100 mg/kg, ip once daily administered from day 3 to 6 after implantation measured on day 7 by MTT-based hollow-fiber test; settings: dose mg/kg 3-6; route intraperitoneal
MCF7 [21] = test: Growth inhibition of human MCF7 cells xenografted in NCr nu/nu mouse at 25 to 100 mg/kg, sc once daily administered from day 3 to 6 after implantation measured on day 7 by MTT-based hollow-fiber test; settings: dose mg/kg 3-6; route subcutaneous
LNCaP [22] = test: Growth inhibition of human LNCAP cells xenografted in NCr nu/nu mouse at 25 to 100 mg/kg, sc once daily administered from day 3 to 6 after implantation measured on day 7 by MTT-based hollow-fiber test; settings: route subcutaneous
SW626 [23] = test: Growth inhibition of human SW626 cells xenografted in NCr nu/nu mouse at 25 to 100 mg/kg, sc once daily administered from day 3 to 6 after implantation measured on day 7 by MTT-based hollow-fiber test; settings: dose mg/kg 3-6; route subcutaneous
MCF7 [24] = test: Growth inhibition of human MCF7 cells xenografted in NCr nu/nu mouse at 6.25 to 50 mg/kg, ip once daily administered from day 3 to 6 after implantation measured on day 7 by MTT-based hollow-fiber test; settings: dose mg/kg 3-6; route intraperitoneal
MCF7 [25] = test: Growth inhibition of human MCF7 cells xenografted in NCr nu/nu mouse at 6.25 to 50 mg/kg, sc once daily administered from day 3 to 6 after implantation measured on day 7 by MTT-based hollow-fiber test; settings: dose mg/kg 3-6; route subcutaneous

COc1ccc([C@H]2COc3c(ccc4c3C=CC(C)(CCC=C(C)C)O4)C2)c(O)c1O (some centres not stated) [NITIDULIN]
ED50 (LNCaP [1]): 9700 nM
growth inhibition (GI) (LNCaP [2]): 0%
growth inhibition (GI) (LNCaP [3]): 54%

CC(=O)O[C@H]1O[C@H]([C@@H]2c3cccc(O)c3C(=O)c3c(O)cc(C)cc32)[C@H](O)[C@@H](O)[C@H]1O [ALVARADOIN F]
growth inhibition (GI) (KB [4]): 32%
ED50 (Col2 [5]): 230 nM
growth inhibition (GI) (Col2 [6]): 1%
ED50 (LNCaP [1]): 120 nM
growth inhibition (GI) (KB [7]): 2%
growth inhibition (GI) (LNCaP [8]): 59%
growth inhibition (GI) (Col2 [9]): 21%
growth inhibition (GI) (LNCaP [10]): 3%

CO[C@@]12CC[C@@]3(C)[C@@](CC[C@@H]4[C@@]5(C)CCC[C@]43OC5=O)(C1)C(=O)C2=O
growth inhibition (GI) (LNCaP [11]): 50%
ED50 (LNCaP [1]): 1200 nM
ED50 (MCF7 [12]): 870 nM
growth inhibition (GI) (SK-MEL-2 [13]): 11%
growth inhibition (GI) (KB [14]): 21%
growth inhibition (GI) (KB [15]): 6%
ED50 (SW626 [16]): 580 nM
growth inhibition (GI) (MCF7 [17]): 34%
ED50 (SK-MEL-2 [18]): 1200 nM
growth inhibition (GI) (SW626 [19]): 0%
growth inhibition (GI) (SK-MEL-2 [20]): 15%
growth inhibition (GI) (MCF7 [21]): 0%
growth inhibition (GI) (LNCaP [22]): 0%
growth inhibition (GI) (SW626 [23]): 16%

C[C@]12CC[C@]3(O)C[C@@]1(CC[C@@H]1[C@@]4(C)CCC[C@]12OC4=O)C(=O)C3=O
growth inhibition (GI) (LNCaP [11]): 0%
ED50 (LNCaP [1]): 4500 nM
growth inhibition (GI) (KB [14]): 0%
growth inhibition (GI) (KB [15]): 0%
growth inhibition (GI) (LNCaP [22]): 0%

CCCCCCCCCCCCC[C@@H]1C[C@@H](O)C[C@]2(CCC3(C=CC(=O)C=C3)O2)O1 [ACULEATIN A]
growth inhibition (GI) (MCF7 [24]): 10%
growth inhibition (GI) (MCF7 [25]): 0%
